Laboratory results from EP0382636A1, “Pyrimidine derivatives, 2-[4-(alpha-heteroaryl-alpha-aryl-(alpha-alkyl)-methoxy)-butyl)-1-piperazinyl], with a serotoninergical activity” (LABORATORIOS DEL DR. ESTEVE, S.A., priority 1989, dated 1990).

These compounds were tested against T1, récepteurs 5-HT 1A (Homo sapiens, UniProt P08908) (assay: 5-HT 1A receptor binding (radioligand displacement)). Conditions: specific binding to 5-HT 1A receptors; test concentration not given; method cited from M. Hapon, Brain Receptor Methodologies.
T1 sequence (P08908 1-422): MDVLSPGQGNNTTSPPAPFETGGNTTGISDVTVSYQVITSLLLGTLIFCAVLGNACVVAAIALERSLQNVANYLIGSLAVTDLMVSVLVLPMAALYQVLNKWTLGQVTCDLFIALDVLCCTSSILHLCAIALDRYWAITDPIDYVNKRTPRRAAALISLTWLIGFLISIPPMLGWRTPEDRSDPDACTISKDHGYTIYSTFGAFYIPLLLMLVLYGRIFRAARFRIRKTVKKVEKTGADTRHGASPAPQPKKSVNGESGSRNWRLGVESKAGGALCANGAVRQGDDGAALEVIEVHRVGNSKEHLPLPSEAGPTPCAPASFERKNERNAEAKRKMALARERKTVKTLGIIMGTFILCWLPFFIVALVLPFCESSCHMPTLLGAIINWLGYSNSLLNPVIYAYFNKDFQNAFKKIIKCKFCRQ
Excerpt: L'activité de certains composés sur le système nerveux central a été étudiée et plus précisément leur activité sérotoninergique, par leur union spécifique aux récepteurs 5-HT 1A. TABLEAU II

Row | Structure (SMILES) | Binding 5-HT-1A déplacement (%)
1 | O=C1CC2(CCCC2)CC(=O)N1CCCCN1CCN(c2ncccn2)CC1 [Buspirone, reference compound] | 99,1%
2 | Cn1ccnc1C(OCCCCN1CCN(c2ncccn2)CC1)c1ccc(Cl)cc1 (centres unmarked) [Exemple 1] | 94,7%
3 | Cn1ccnc1C(C)(OCCCCN1CCN(c2ncccn2)CC1)c1ccc(Cl)cc1 (centres unmarked) [Exemple 2] | 98,6%
4 | CCCCn1ccnc1C(C)(OCCCCN1CCN(c2ncccn2)CC1)c1cccc(C(F)(F)F)c1 (centres unmarked) [Exemple 3] | 97,6%
5 | Cn1ccnc1C(C)(OCCCCN1CCN(c2ncccn2)CC1)c1cccc(C(F)(F)F)c1 (centres unmarked) [Exemple 4] | 98,1%
6 | CCCCn1ccnc1C(OCCCCN1CCN(c2ncccn2)CC1)c1ccc(Cl)cc1 (centres unmarked) [Exemple 5] | 91,5%
7 | CCCCn1ccnc1C(OCCCCN1CCN(c2ncccn2)CC1)c1cccc(C(F)(F)F)c1 (centres unmarked) [Exemple 6] | 94,6%
8 | Cn1ccnc1C(OCCCCN1CCN(c2ncccn2)CC1)c1cccc(C(F)(F)F)c1 (centres unmarked) [Exemple 7] | 98,3%

The remaining lines, values ahead:

Row | Binding 5-HT-1A déplacement (%) | Structure (SMILES)
9 | 95,0% | Cn1nccc1C(OCCCCN1CCN(c2ncccn2)CC1)c1ccc(Cl)cc1 (centres unmarked) [Exemple 8]
10 | 95,0% | Cn1nccc1C(C)(OCCCCN1CCN(c2ncccn2)CC1)c1ccc(Cl)cc1 (centres unmarked) [Exemple 9]
11 | 99,6% | O=C1c2ccccc2S(=O)(=O)N1CCCCN1CCN(c2ncccn2)CC1 [Ipsapirone, reference compound]
